Laboratory results as given in EP4556465A1, “NOVEL BICYCLIC PD-L1 INHIBITORS, PREPARATION METHODS THEREFOR AND MEDICINAL USES THEREOF” (priority 2022, dated 2024).
pIC50: −log10 of the molar value.

What was measured:
hPD-1/hPD-L1 = molecular target: T1, hPD-1/hPD-L1 (Homo sapiens, UniProt Q9NZQ7); test: PD-1/PD-L1 binding assay kit (CISBIO), HTRF assay of PD-1/PD-L1 protein-protein interaction; conditions: for inhibitory activity of PD-1/PD-L1 protein-protein interaction compared with BMS-202: HTRF, comparison with BMS-202
T1 construct: purchased CISBIO
Method: Experimental objective: the activity of the compounds of formula (I) to inhibit the PD-1/PD-L1 interaction was tested by using a PD-1/PD-L1 binding assay kit (CISBIO).
Experimental principle: HTRF (Homogeneous Time-Resolved Fluorescence) is a technique used to detect substances to be tested in pure liquid phase systems. It primarily utilizes energy transfer of two fluorescent groups, which are divided into an energy donor europium (Eu^+) and an energy acceptor. When the donor is externally excited (e.g., a flash lamp or laser), the energy can be resonantly transferred to the acceptor if the donor is close enough to the acceptor, and the acceptor is excited at a specific wavelength. By using the HTRF technology, the assay enables simple and rapid characterization of compounds and antibody blockers in a high-throughput format. By using anti-Tag1 labeled with Eu^+ (Europium) (the HTRF energy donor) and anti-Tag2 labeled with XL665 (the HTRF energy acceptor), the interaction between PD-L1 and PD-1 can be detected. PD-L1 protein and PD-1 protein are labeled with Tag1 and Tag2, respectively, and Eu^+ and XL665 bind to PD-L1 and PD-1, respectively, through antibodies to form complexes. […] This specific signal is directly proportional to the degree of PD1/PD-L1 interaction.
Experimental materials: kit: PD-1/PD-L1 binding assay kits purchased from CISBIO; and 96-well plate: purchased from CISBIO.
Test instrument: Perkin Elmer, model: EnVision.
Test compounds: the compounds in formula (I).
Experimental procedure: PD-1/PD-L1 binding assay kits were used. […] The plates were sealed by using microplate sealers, centrifuging was performed at 1000 rpm for 1 min, and incubation was performed at room temperature for 15 min. The Anti-Tag-Eu^3+ and Anti-tag-XL665 which were diluted with Buffer were then mixed in equal volumes, then 10 µL of the mixed solution was added to each well, the sealed plates were centrifuged at 1000 rpm for 1 min, and incubation was performed at room temperature for 2 h. […] IC50 of the compounds was calculated by using Graphpad.

SD rats [1] = test: Acute toxicity test, single oral gavage; type: in vivo; conditions: 500 mg/kg, 1000 mg/kg and 2000 mg/kg
Method: (§1) • Animal species and number: SD rats; 6 rats in each group (half male and half female); Mode of administration: oral gavage; […]; • Administration frequency: administration once.
(§2) Side-cage observation on the day of administration (D1): frequency and time of observation: side-cage observation of acute toxicity reactions was performed for 4 h after administration of animals in each group, and detailed clinical observations were performed on animals with apparent abnormal manifestations. Mortality, morbidity, respiration, secretion, feces, and diet, water drinking, etc. were observed, and changes in body weight of rats during administration were recorded. Detailed clinical observations include, but are not limited to, behavioral activities, skin, hair, eyes, ears, noses, abdomens, external genitalia, anuses, limbs, feet, and breathing. The animals in each group were euthanized at the end of the observation period, and all animals were dissected and gross observed.

SD rats [2] = test: Safety test after repeated administration for 14 days; type: in vivo; conditions: oral gavage 300 mg/kg once a day for 14 days
Method: • Animal species and number: SD rats; 6 rats in each group (half male and half female); Mode of administration: oral gavage; […]; • Administration frequency: administration once a day for 14 days.
as §2, with “Side-cage” for “Side-cage observation on the day of administration (D1): frequency and time of observation: side-cage”, “administration,” for “administration of animals in each group,”, “manifestations. General clinical observations included observation twice a day during the test (observation once in the morning and observation once in the afternoon).” for “manifestations.”, “administration,” for “the observation period,”

[3] = test system: breast cancer tumor cells 4T1; conditions: 10 mg/kg, i.g., QD×21 days; for Tumor inhibition rate / tumor-inhibiting efficacy: 4T1 subcutaneous tumor
Method: Subsequently, each group of animals was dosed, and the day of first administration was defined as test day 1; • Administration frequency: once a day; • General state observations: observation time and frequency: once a day; observation indicators or content: including, but not limited to, local administration of the animals, appearance signs, general behavioral activity, mental status, death, and other abnormal manifestations. The animals were euthanized at the end of the test. • Calculation of tumor volume: V=1/2×long diameter×short diameter^2 (mm^3).

[4] = Acute toxicity test, single oral gavage; type: in vivo; conditions: both sexes, rat, in vivo, po, SD rats, read-out: maximum tolerated dose (MTD)
Method: as §1, §2

T1 sequence (Q9NZQ7 19-238 limits assumed): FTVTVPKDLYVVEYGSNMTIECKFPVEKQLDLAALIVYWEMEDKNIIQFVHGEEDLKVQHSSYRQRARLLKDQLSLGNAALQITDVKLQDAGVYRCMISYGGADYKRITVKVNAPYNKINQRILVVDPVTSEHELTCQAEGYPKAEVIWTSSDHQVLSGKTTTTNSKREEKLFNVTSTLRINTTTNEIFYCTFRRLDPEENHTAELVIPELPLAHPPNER

SMILES | pIC50 (hPD-1/hPD-L1) | inhibitory activity of PD-1/PD-L1 protein-protein interaction compared with BMS-202 (hPD-1/hPD-L1) | gross observation, test sample-related changes (SD rats [1]) | mortality or moribundity (SD rats [1]) | clinical observations (water intake, food intake, activity, body weight) (SD rats [2]) | general state of tumor-bearing animals during administration (water and food intake, activity, body weight, toxicity) [3] | Tumor inhibition rate [3] | tumor-inhibiting efficacy [3] | MTD [4]
OCCN1CCc2nc(OCc3cccc(-c4ccccc4F)c3Cl)ccc2C1 [I-D-18, 2-(2-((2-chloro-2'-fluoro-[1,1'-biphenyl]-3-yl)methoxy)-7,8-dihydro-1,6-naphthyridin-6(5H)-yl)ethan-1-ol] | 7.79 | superior to that of the compound BMS-202 | No test sample-related changes were observed grossly | No mortality or moribundity was observed | normal water intake and food intake, normal activity, and normal body weight, with no significant abnormalities | normal water intake and food intake, normal activity, normal body weight, and no toxicity manifestations | +++ ("+++" indicates a tumor inhibition rate of more than 60%) | significant tumor-inhibiting efficacy | –
O=C(O)CN1CCc2nc(OCc3cccc(-c4ccccc4F)c3Cl)ccc2C1 [I-D-26, 2-(2-((2-chloro-2'-fluoro-[1,1'-biphenyl]-3-yl)methoxy)-7,8-dihydro-1,6-naphthyridin-6(5H)-yl)acetic acid] | – | – | No test sample-related changes were observed grossly | No mortality or moribundity was observed | normal water intake and food intake, normal activity, and normal body weight, with no significant abnormalities | – | +++ ("+++" indicates a tumor inhibition rate of more than 60%) | significant tumor-inhibiting efficacy | ≥ 2000 mg/kg
Fc1ccccc1-c1cccc(COc2ccc3c(n2)CCNC3)c1Cl [I-D-27, 2-((2-chloro-2'-fluoro-[1,1'-biphenyl]-3-yl)methoxy)-5,6,7,8-tetrahydro-1,6-naphthyridine] | 8.00 | superior to that of the compound BMS-202 | No test sample-related changes were observed grossly | No mortality or moribundity was observed | normal water intake and food intake, normal activity, and normal body weight, with no significant abnormalities | normal water intake and food intake, normal activity, normal body weight, and no toxicity manifestations | +++ ("+++" indicates a tumor inhibition rate of more than 60%) | significant tumor-inhibiting efficacy | ≥ 2000 mg/kg
